Tested on: 786-0 complex spheroids with HUVEC/MSC, growth % test/control
Assay: Anticancer human tumor 786-0 cell line growth inhibition [AhR];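 further: compound exposure lasted seven days before the read-out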
Settings: for IC50: curve of first compound; for viability, T/C: stronger effect = lower value
Outline: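 Complex tumor spheroids co-cultured with HUVEC and human MSC stroma; AhR antagonists tested in combination with standard-of-care and investigational agents. Top concentration at or near clinical Cmax (else 10 microM), half-log dilutions; growth expressed as percent test/control.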

[1] = second compound 0.1 µM, first compound 0.00949 µM
[2] = second compound 0.1 µM, first compound 0.03 µM
[3] = second compound 0.1 µM, first compound 0.0949 µM
[4] = second compound 0.1 µM, first compound 0.3 µM
[5] = second compound 0.316 µM, first compound 0.00949 µM
[6] = second compound 0.316 µM, first compound 0.03 µM
[7] = second compound 0.316 µM, first compound 0.0949 µM
[8] = second compound 0.316 µM, first compound 0.3 µM
[9] = second compound 1 µM, first compound 0.00949 µM
[10] = second compound 1 µM, first compound 0.03 µM
[11] = second compound 1 µM, first compound 0.0949 µM
[12] = second compound 1 µM, first compound 0.3 µM
[13] = second compound 3.16 µM, first compound 0.00949 µM
[14] = second compound 3.16 µM, first compound 0.03 µM
[15] = second compound 3.16 µM, first compound 0.0949 µM
[16] = second compound 3.16 µM, first compound 0.3 µM
[17] = second compound 10 µM, first compound 0.00949 µM
[18] = second compound 10 µM, first compound 0.03 µM
[19] = second compound 10 µM, first compound 0.0949 µM
[20] = second compound 10 µM, first compound 0.3 µM

COc1ccc([C@@H](O)c2cc(-c3ncnc4cc(N5CCOCC5)ccc34)c(F)cc2Cl)nn1 + Cc1cncc(-c2nc(NCCc3c[nH]c4ccccc34)c3ncn(C(C)C)c3n2)c1 was tested, and the IC50 (second compound 0.1 µM) was > 10 µM, the IC50 (second compound 0.316 µM) was > 10 µM and the IC50 (second compound 1 µM) was > 10 µM. For the same compound, the IC50 (second compound 3.16 µM) was > 10 µM, the IC50 (second compound 10 µM) was < 0.0316 µM and the viability, T/C (second compound 0.1 µM, first compound 0.0316 µM) was 103%. The viability, T/C (second compound 0.1 µM, first compound 0.1 µM) was 111%, the viability, T/C (second compound 0.1 µM, first compound 0.316 µM) was 111% and the viability, T/C (second compound 0.1 µM, first compound 1 µM) was 112%. It also gave a viability, T/C (second compound 0.1 µM, first compound 3.16 µM) of 109%, a viability, T/C (second compound 0.1 µM, first compound 10 µM) of 89.9% and a viability, T/C (second compound 0.316 µM, first compound 0.0316 µM) of 112%. It also gave a viability, T/C (second compound 0.316 µM, first compound 0.1 µM) of 111%, a viability, T/C (second compound 0.316 µM, first compound 0.316 µM) of 114% and a viability, T/C (second compound 0.316 µM, first compound 1 µM) of 120%. For the same compound, the viability, T/C (second compound 0.316 µM, first compound 3.16 µM) was 103%, the viability, T/C (second compound 0.316 µM, first compound 10 µM) was 95.4% and the viability, T/C (second compound 1 µM, first compound 0.0316 µM) was 107%. It also gave a viability, T/C (second compound 1 µM, first compound 0.1 µM) of 103%, a viability, T/C (second compound 1 µM, first compound 0.316 µM) of 96.4% and a viability, T/C (second compound 1 µM, first compound 1 µM) of 104%. It also gave a viability, T/C (second compound 1 µM, first compound 3.16 µM) of 103%, a viability, T/C (second compound 1 µM, first compound 10 µM) of 84.8% and a viability, T/C (second compound 3.16 µM, first compound 0.0316 µM) of 73%. For the same compound, the viability, T/C (second compound 3.16 µM, first compound 0.1 µM) was 73.3%, the viability, T/C (second compound 3.16 µM, first compound 0.316 µM) was 66.4% and the viability, T/C (second compound 3.16 µM, first compound 1 µM) was 62.7%. The viability, T/C (second compound 3.16 µM, first compound 3.16 µM) was 61.2%, the viability, T/C (second compound 3.16 µM, first compound 10 µM) was 61.5% and the viability, T/C (second compound 10 µM, first compound 0.0316 µM) was 6.44%. It also gave a viability, T/C (second compound 10 µM, first compound 0.1 µM) of 5.3%, a viability, T/C (second compound 10 µM, first compound 0.316 µM) of 8.33% and a viability, T/C (second compound 10 µM, first compound 1 µM) of 5.44%. For the same compound, the viability, T/C (second compound 10 µM, first compound 3.16 µM) was 5.99% and the viability, T/C (second compound 10 µM, first compound 10 µM) was 9.73%.

With Nc1ncn(C2CC(O)C(CO)S2)c(=O)n1 (stereo not given) + Cc1cncc(-c2nc(NCCc3c[nH]c4ccccc34)c3ncn(C(C)C)c3n2)c1 the IC50 (second compound 0.1 µM) was > 0.3 µM, the IC50 (second compound 0.316 µM) was > 0.3 µM and the IC50 (second compound 1 µM) was > 0.3 µM. For the same compound, the IC50 (second compound 3.16 µM) was 0.0223 µM, the IC50 (second compound 10 µM) was < 0.000949 µM and the viability, T/C (second compound 0.1 µM, first compound 0.000949 µM) was 120%. The viability, T/C (second compound 0.1 µM, first compound 0.003 µM) was 123%, the viability, T/C [1] was 122% and the viability, T/C [2] was 118%. For the same compound, the viability, T/C [3] was 94.2%, the viability, T/C [4] was 82.7% and the viability, T/C (second compound 0.316 µM, first compound 0.000949 µM) was 121%. The viability, T/C (second compound 0.316 µM, first compound 0.003 µM) was 117%, the viability, T/C [5] was 121% and the viability, T/C [6] was 110%. It also gave a viability, T/C [7] of 94.7%, a viability, T/C [8] of 79.3% and a viability, T/C (second compound 1 µM, first compound 0.000949 µM) of 101%. For the same compound, the viability, T/C (second compound 1 µM, first compound 0.003 µM) was 102%, the viability, T/C [9] was 94.3% and the viability, T/C [10] was 90.3%. It also gave a viability, T/C [11] of 61.1%, a viability, T/C [12] of 57.6% and a viability, T/C (second compound 3.16 µM, first compound 0.000949 µM) of 69.2%. The viability, T/C (second compound 3.16 µM, first compound 0.003 µM) was 65.2%, the viability, T/C [13] was 59.8% and the viability, T/C [14] was 46.6%. It also gave a viability, T/C [15] of 40.4%, a viability, T/C [16] of 39.9% and a viability, T/C (second compound 10 µM, first compound 0.000949 µM) of 17.2%. The viability, T/C (second compound 10 µM, first compound 0.003 µM) was 14.9%, the viability, T/C [17] was 22% and the viability, T/C [18] was 15.6%. The viability, T/C [19] was 10.9% and the viability, T/C [20] was 9.94%.

O=C(C=Cn1cnc(-c2cc(C(F)(F)F)cc(C(F)(F)F)c2)n1)NNc1cnccn1 + Cc1cncc(-c2nc(NCCc3c[nH]c4ccccc34)c3ncn(C(C)C)c3n2)c1 showed an IC50 (second compound 0.1 µM) of 0.736 µM, an IC50 (second compound 0.316 µM) of 0.619 µM and an IC50 (second compound 1 µM) of 0.562 µM. For the same compound, the IC50 (second compound 3.16 µM) was 0.412 µM, the IC50 (second compound 10 µM) was < 0.00949 µM and the viability, T/C [1] was 118%. For the same compound, the viability, T/C [2] was 125%, the viability, T/C [3] was 134% and the viability, T/C [4] was 75.5%. The viability, T/C (second compound 0.1 µM, first compound 0.949 µM) was 50.2%, the viability, T/C (second compound 0.1 µM, first compound 3 µM) was 20.5% and the viability, T/C [5] was 130%. It also gave a viability, T/C [6] of 142%, a viability, T/C [7] of 151% and a viability, T/C [8] of 76%. For the same compound, the viability, T/C (second compound 0.316 µM, first compound 0.949 µM) was 49.4%, the viability, T/C (second compound 0.316 µM, first compound 3 µM) was 19.9% and the viability, T/C [9] was 127%. It also gave a viability, T/C [10] of 131%, a viability, T/C [11] of 129% and a viability, T/C [12] of 67.5%. It also gave a viability, T/C (second compound 1 µM, first compound 0.949 µM) of 44.9%, a viability, T/C (second compound 1 µM, first compound 3 µM) of 19.9% and a viability, T/C [13] of 116%. It also gave a viability, T/C [14] of 146%, a viability, T/C [15] of 131% and a viability, T/C [16] of 57.6%. For the same compound, the viability, T/C (second compound 3.16 µM, first compound 0.949 µM) was 37.6%, the viability, T/C (second compound 3.16 µM, first compound 3 µM) was 21.9% and the viability, T/C [17] was 12.7%. For the same compound, the viability, T/C [18] was 18.3%, the viability, T/C [19] was 11.7% and the viability, T/C [20] was 4.08%. The viability, T/C (second compound 10 µM, first compound 0.949 µM) was 5.46% and the viability, T/C (second compound 10 µM, first compound 3 µM) was 4.69%.

— PubChem BioAssay AID1919003 (Molecular Pharmacology Branch, DTP, NCI, 2023)
